In the CheMixHub viscosity set:

Experiment: xn = mol fraction of the nth substance listed

ClC(Cl)C(Cl)Cl + CCCCCCC
303.15 K, 101 kPa
Conditions | viscosity [mPa·s]
x1 = 0.1397 | 0.398
x1 = 0.2476 | 0.472
x1 = 0.3744 | 0.564
x1 = 0.4722 | 0.643
x1 = 0.5731 | 0.727
x1 = 0.6565 | 0.8
x1 = 0.7428 | 0.896
x1 = 0.8309 | 1.023
x1 = 0.9008 | 1.165
x1 = 0.9406 | 1.267

COC(=O)OC + CCCCCCCC
298.15 K, 101.3 kPa
Conditions | viscosity [mPa·s]
x1 = 0.0701 | 0.503
x1 = 0.1113 | 0.495
x1 = 0.2006 | 0.483
x1 = 0.2669 | 0.476
x1 = 0.2955 | 0.476
x1 = 0.4863 | 0.481
x1 = 0.6318 | 0.494
x1 = 0.6706 | 0.499
x1 = 0.7712 | 0.517
x1 = 0.8602 | 0.543
x1 = 0.9459 | 0.569

COCCOCCOC + CCCCCCCC
viscosity [mPa·s], 101.33 kPa
Conditions | x1 = 0.0946 | x1 = 0.203 | x1 = 0.2985 | x1 = 0.3956 | x1 = 0.4955 | x1 = 0.5945 | x1 = 0.697 | x1 = 0.7972 | x1 = 0.8977
298.15 K | 0.515 | 0.535 | 0.561 | 0.594 | 0.636 | 0.681 | 0.748 | 0.807 | 0.884
303.15 K | 0.485 | 0.503 | 0.536 | 0.557 | 0.593 | 0.636 | 0.686 | 0.746 | 0.82
308.15 K | 0.458 | 0.475 | 0.501 | 0.523 | 0.556 | 0.596 | 0.641 | 0.695 | 0.762
313.15 K | 0.432 | 0.448 | 0.473 | 0.493 | 0.524 | 0.559 | 0.604 | 0.65 | 0.712
318.15 K | 0.41 | 0.425 | 0.446 | 0.466 | 0.493 | 0.523 | 0.575 | 0.61 | 0.667

ClC(Cl)C(Cl)Cl + CCCCCCCC
303.15 K, 101 kPa
Conditions | viscosity [mPa·s]
x1 = 0.1642 | 0.536
x1 = 0.2409 | 0.562
x1 = 0.3162 | 0.61
x1 = 0.3944 | 0.655
x1 = 0.4996 | 0.725
x1 = 0.5896 | 0.794
x1 = 0.6696 | 0.864
x1 = 0.7658 | 0.976
x1 = 0.8847 | 1.167
x1 = 0.9045 | 1.208

COCCOCCOC + CCCCCCCCC
viscosity [mPa·s], 101.33 kPa
Conditions | x1 = 0.0991 | x1 = 0.2003 | x1 = 0.3005 | x1 = 0.3982 | x1 = 0.5023 | x1 = 0.5963 | x1 = 0.6999 | x1 = 0.7997 | x1 = 0.897
298.15 K | 0.642 | 0.64 | 0.665 | 0.691 | 0.712 | 0.747 | 0.794 | 0.836 | 0.898
308.15 K | 0.559 | 0.56 | 0.579 | 0.6 | 0.618 | 0.647 | 0.685 | 0.718 | 0.768
318.15 K | 0.49 | 0.49 | 0.507 | 0.523 | 0.538 | 0.561 | 0.591 | 0.62 | 0.662

ClC(Cl)C(Cl)Cl + CCCCCCCCC
303.15 K, 101 kPa
Conditions | viscosity [mPa·s]
x1 = 0.1552 | 0.651
x1 = 0.2636 | 0.704
x1 = 0.3332 | 0.742
x1 = 0.3926 | 0.77
x1 = 0.5196 | 0.836
x1 = 0.5976 | 0.879
x1 = 0.6903 | 0.943
x1 = 0.7468 | 0.991
x1 = 0.8858 | 1.163
x1 = 0.9204 | 1.235
